Measured values from the supplement of paper PMC10307832.

Tests used:
Assay in all cases: relative viability (nuclei count vs DMSO), 5 days (fraction); higher = more cells survive
ABC-1 = test system: ABC-1
How it was run: (§1)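 Nuclei were stained with Hoechst during a one-step fixation (final 0.05% Triton X-100, 1% formaldehyde, 1 ug/ml Hoechst) carried out 5 days after dosing, then counted on 4× images. The cells, lung cancer lines in 1536-well plates, had been dosed by pin tool the day after seeding with one drug alone or a fixed anchor-drug dose plus five library-drug doses (not always all listed) in √10 steps. Relative viability is the nuclei count in treated wells divided by that in vehicle wells, and each value is the median of duplicate plates.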

COR-L 105 = test system: COR-L 105
How it was run: as §1

ChaGo-K-1 = test system: ChaGo-K-1
How it was run: as §1

EMC-BAC-2 = test system: EMC-BAC-2
How it was run: as §1

EPLC-272H = test system: EPLC-272H
How it was run: as §1

HCC-15 = test system: HCC-15
How it was run: as §1

HCC-78 = test system: HCC-78
How it was run: as §1

HOP-62 = test system: HOP-62
How it was run: as §1

LXF-289 = test system: LXF-289
How it was run: as §1

NCI-H1666 = test system: NCI-H1666
How it was run: as §1

NCI-H1755 = test system: NCI-H1755
How it was run: as §1

NCI-H1915 = test system: NCI-H1915
How it was run: as §1

NCI-H1975 = test system: NCI-H1975
How it was run: as §1

NCI-H1993 = test system: NCI-H1993
How it was run: as §1

NCI-H2023 = test system: NCI-H2023
How it was run: as §1

NCI-H2085 = test system: NCI-H2085
How it was run: as §1

NCI-H2126 = test system: NCI-H2126
How it was run: as §1

NCI-H3122 = test system: NCI-H3122
How it was run: as §1

NCI-H322M = test system: NCI-H322M
How it was run: as §1

NCI-H358 = test system: NCI-H358
How it was run: as §1

NCI-H441 = test system: NCI-H441
How it was run: as §1

UMC-11 = test system: UMC-11
How it was run: as §1

NC(=O)Nc1cc(-c2cccc(F)c2)sc1C(=O)N[C@H]1CCCNC1 [AZD7762] + Nc1ncn([C@H]2C[C@H](O)[C@@H](CO)O2)c(=O)n1 [Decitabine] (partner 2 µM)
relative viability (ABC-1; first compound 0.01 µM): 1.07
relative viability (ABC-1; first compound 0.03162 µM): 1.11
relative viability (ABC-1; first compound 0.1 µM): 0.989
relative viability (ABC-1; first compound 0.3162 µM): 0.909
relative viability (ABC-1; first compound 1 µM): 0.617
relative viability (COR-L 105; first compound 0.01 µM): 0.711
relative viability (COR-L 105; first compound 0.03162 µM): 0.664
relative viability (COR-L 105; first compound 0.1 µM): 0.643
relative viability (COR-L 105; first compound 0.3162 µM): 0.55
relative viability (COR-L 105; first compound 1 µM): 0.508
relative viability (ChaGo-K-1; first compound 0.01 µM): 0.52
relative viability (ChaGo-K-1; first compound 0.03162 µM): 0.553
relative viability (ChaGo-K-1; first compound 0.1 µM): 0.565
relative viability (ChaGo-K-1; first compound 0.3162 µM): 0.555
relative viability (ChaGo-K-1; first compound 1 µM): 0.597
relative viability (EMC-BAC-2; first compound 0.01 µM): 1.03
relative viability (EMC-BAC-2; first compound 0.03162 µM): 1.01
relative viability (EMC-BAC-2; first compound 0.1 µM): 1.09
relative viability (EMC-BAC-2; first compound 0.3162 µM): 1.13
relative viability (EMC-BAC-2; first compound 1 µM): 0.933
relative viability (EPLC-272H; first compound 0.01 µM): 0.352
relative viability (EPLC-272H; first compound 0.03162 µM): 0.445
relative viability (EPLC-272H; first compound 0.1 µM): 0.356
relative viability (EPLC-272H; first compound 0.3162 µM): 0.421
relative viability (EPLC-272H; first compound 1 µM): 0.239
relative viability (HCC-15; first compound 0.01 µM): 0.565
relative viability (HCC-15; first compound 0.03162 µM): 0.587
relative viability (HCC-15; first compound 0.1 µM): 0.622
relative viability (HCC-15; first compound 0.3162 µM): 0.553
relative viability (HCC-15; first compound 1 µM): 0.589
relative viability (HCC-78; first compound 0.01 µM): 0.707
relative viability (HCC-78; first compound 0.03162 µM): 0.901
relative viability (HCC-78; first compound 0.1 µM): 0.824
relative viability (HCC-78; first compound 0.3162 µM): 0.904
relative viability (HCC-78; first compound 1 µM): 0.622
relative viability (HOP-62; first compound 0.01 µM): 0.216
relative viability (HOP-62; first compound 0.03162 µM): 0.23
relative viability (HOP-62; first compound 0.1 µM): 0.248
relative viability (HOP-62; first compound 0.3162 µM): 0.284
relative viability (HOP-62; first compound 1 µM): 0.299
relative viability (LXF-289; first compound 0.01 µM): 0.322
relative viability (LXF-289; first compound 0.03162 µM): 0.476
relative viability (LXF-289; first compound 0.1 µM): 0.486
relative viability (LXF-289; first compound 0.3162 µM): 0.619
relative viability (LXF-289; first compound 1 µM): 0.55
relative viability (NCI-H1666; first compound 0.01 µM): 0.731
relative viability (NCI-H1666; first compound 0.03162 µM): 0.907
relative viability (NCI-H1666; first compound 0.1 µM): 0.924
relative viability (NCI-H1666; first compound 0.3162 µM): 0.824
relative viability (NCI-H1666; first compound 1 µM): 0.71
relative viability (NCI-H1755; first compound 0.01 µM): 0.76
relative viability (NCI-H1755; first compound 0.03162 µM): 0.839
relative viability (NCI-H1755; first compound 0.1 µM): 0.847
relative viability (NCI-H1755; first compound 0.3162 µM): 0.922
relative viability (NCI-H1755; first compound 1 µM): 0.703
relative viability (NCI-H1915; first compound 0.01 µM): 0.276
relative viability (NCI-H1915; first compound 0.03162 µM): 0.297
relative viability (NCI-H1915; first compound 0.1 µM): 0.294
relative viability (NCI-H1915; first compound 0.3162 µM): 0.337
relative viability (NCI-H1915; first compound 1 µM): 0.326
relative viability (NCI-H1975; first compound 0.01 µM): 0.427
relative viability (NCI-H1975; first compound 0.03162 µM): 0.391
relative viability (NCI-H1975; first compound 0.1 µM): 0.439
relative viability (NCI-H1975; first compound 0.3162 µM): 0.396
relative viability (NCI-H1975; first compound 1 µM): 0.266
relative viability (NCI-H1993; first compound 0.01 µM): 0.626
relative viability (NCI-H1993; first compound 0.03162 µM): 0.606
relative viability (NCI-H1993; first compound 0.1 µM): 0.657
relative viability (NCI-H1993; first compound 0.3162 µM): 0.597
relative viability (NCI-H1993; first compound 1 µM): 0.638
relative viability (NCI-H2023; first compound 0.01 µM): 0.249
relative viability (NCI-H2023; first compound 0.03162 µM): 0.25
relative viability (NCI-H2023; first compound 0.1 µM): 0.179
relative viability (NCI-H2023; first compound 0.3162 µM): 0.121
relative viability (NCI-H2023; first compound 1 µM): 0.0986
relative viability (NCI-H2085; first compound 0.01 µM): 0.602
relative viability (NCI-H2085; first compound 0.03162 µM): 0.693
relative viability (NCI-H2085; first compound 0.1 µM): 0.672
relative viability (NCI-H2085; first compound 0.3162 µM): 0.743
relative viability (NCI-H2085; first compound 1 µM): 0.702
relative viability (NCI-H2126; first compound 0.01 µM): 0.562
relative viability (NCI-H2126; first compound 0.03162 µM): 0.628
relative viability (NCI-H2126; first compound 0.1 µM): 0.656
relative viability (NCI-H2126; first compound 0.3162 µM): 0.789
relative viability (NCI-H2126; first compound 1 µM): 0.741
relative viability (NCI-H3122; first compound 0.01 µM): 0.451
relative viability (NCI-H3122; first compound 0.03162 µM): 0.427
relative viability (NCI-H3122; first compound 0.1 µM): 0.442
relative viability (NCI-H3122; first compound 0.3162 µM): 0.415
relative viability (NCI-H3122; first compound 1 µM): 0.434
relative viability (NCI-H322M; first compound 0.01 µM): 0.813
relative viability (NCI-H322M; first compound 0.03162 µM): 0.789
relative viability (NCI-H322M; first compound 0.1 µM): 0.801
relative viability (NCI-H322M; first compound 0.3162 µM): 0.783
relative viability (NCI-H322M; first compound 1 µM): 0.457
relative viability (NCI-H358; first compound 0.01 µM): 0.229
relative viability (NCI-H358; first compound 0.03162 µM): 0.311
relative viability (NCI-H358; first compound 0.1 µM): 0.38
relative viability (NCI-H358; first compound 0.3162 µM): 0.343
relative viability (NCI-H358; first compound 1 µM): 0.224
relative viability (NCI-H441; first compound 0.01 µM): 0.274
relative viability (NCI-H441; first compound 0.03162 µM): 0.29
relative viability (NCI-H441; first compound 0.1 µM): 0.328
relative viability (NCI-H441; first compound 0.3162 µM): 0.344
relative viability (NCI-H441; first compound 1 µM): 0.27
relative viability (UMC-11; first compound 0.01 µM): 0.728
relative viability (UMC-11; first compound 0.03162 µM): 0.591
relative viability (UMC-11; first compound 0.1 µM): 0.598
relative viability (UMC-11; first compound 0.3162 µM): 0.479
relative viability (UMC-11; first compound 1 µM): 0.305
